Assay results from patent US20220040335A1, “RADIOLABELED PABA AND DERIVATIVES THEREOF FOR USE AS FUNCTIONAL RENAL IMAGING AGENTS” (priority 2018, published 2022).
“Also recorded” adds a separate entry of the source.

Experiment: Dynamic PET/CT renal imaging (renogram) after intravenous injection in healthy rats
Type: in vivo, Wistar rats
Protocol: Methods for renal imaging: ^11C-PABA was synthesized using cGMP conditions at the JHU PET Center. Four female healthy Wistar rats (250-275 g of bodyweight) were injected with 30.5±10.3 MBq of ^11C-PABA through a tail-vein catheter and a dynamic PET scan was performed (15 frames×20 seconds, 5 frames×1 minute, 10 frames×5 minutes, total of 60 minutes) using the nanoScan PET/CT (Mediso). Subsequently, CT imaging was performed for anatomical co-registration. As a control, the same rats were also injected intravenously with 18.5 MBq of ^99mTc-MAG3 (Cardinal Health) and scanned using planar scintigraphy with the nanoSPECT/CT (Nanoscan). The images were analyzed with VivoQuant 3.0 (Invicro) and regions of interest were drawn using the CT as reference.

[1] = representative healthy rat, FIG. 3

- time after injection at which PET/CT signal localized in the right kidney (FIG. 4A): 220 to 240 s
- signal in the kidneys compared to liver and spleen (at time-to-peak, healthy rats, FIG. 3): 30-40 ×
- background accumulation of the tracer in other organs (in words) (dynamic PET, healthy rats): very low background accumulation
- time-to-peak in time-activity curves (kidneys, dynamic PET after IV injection of 30.5±10.3 MBq, healthy female Wistar rats): 9.5 ± 1.4 min
- cortical phase of renogram [1]: 4.7 to 10 min
- vascular phase of renogram [1]: 0 to 4.7 min
SMILES: Nc1ccc([11C](=O)O)cc1 [^11C-PABA, [Carboxy-11C] 4-Aminobenzoic acid]
- renal clearance / excretion from kidneys (in words) (dynamic PET after IV injection, healthy rats, FIG. 2): rapid excretion; also recorded: rapid renal clearance; also recorded: rapidly localized in the kidneys
